System: corneal damage in corneal disorder models
Assay: Test for therapeutic effect on corneal damage (rat corneal disorder model, exorbital lacrimal gland removal, fluorescein staining score)
Format: in vivo, male SD rats
Details: for Improvement ratio (%): {(control)-(compound)}/{(control)-(normal eye)}x100; for Mean value of total scores: fluorescein staining score of cornea (upper, middle, lower parts, each 0-3), mean of 8 eyes
Procedure: Test for Therapeutic Effect on Corneal Damage Using male SD rats, in accordance with the method of Fujihara et al. (Invest. Ophthalmol. Vis. Sci. 42 (1): 96-100 (2001)), corneal disorder models were produced. After the production of the corneal disorder models, the improvement ratio of a corneal damage was evaluated according to the method of Murakami et al. (Journal of the eye 21 (1): 87-90 (2004)). Male SD rats were systemically anesthetized by an administration of Nembutal. Subsequently the exorbital lacrimal gland of each rat was removed and a corneal damage was induced over a period of 2 months. Then, E-4-[4-(5-methyl-2-phenyl-4-oxazolylmethoxy) benzyloxyimino]-4-phenylbutyric acid (Compound A), Z-2-[4-(5-methyl-2-phenyl-4-oxazolylmethoxy) benzyloxyimino]-2-(4-phenoxyphenyl) acetic acid (Compound B), 2-[2-propyl-3-[3-[2-ethyl-4-(4-fluorophenyl)-5-hydroxyphenoxy]propoxy]phenoxy]sodium benzoate (Compound C) or 2(S)-methoxy-3-[4-[3-(4-phenoxyphenoxy)propoxy]phenyl] propionic acid (Compound D) was administered to the rats as follows. A physiological saline solution of Compound A (0.006%) was instilled into both eyes 6 times a day for 7 days (one group consisting of 4 animals, 8 eyes). A physiological saline solution of Compound B (0.006%) was instilled into both eyes 6 times a day for 7 days (one group consisting of 4 animals, 8 eyes). A physiological saline solution of Compound C (0.006%) was instilled into both eyes 6 times a day for 7 days (one group consisting of 4 animals, 8 eyes). A phosphate-buffered saline (PBS) solution of Compound D (0.002%) was instilled into both eyes 6 times a day for 7 days (one group consisting of 4 animals, 8 eyes). In a control group, physiological saline or PBS was instilled into both eyes 6 times a day for 7 days (one group consisting of 4 animals, 8 eyes). Seven days after the start of instillation, the damaged parts of the cornea were stained with fluorescein. For each of the upper, middle and lower parts of the cornea, the degree of fluorescein staining was evaluated by scoring according to the criteria shown below and the mean value of the total scores for each of the above-mentioned parts was calculated. • 0: No punctate staining • 1: Scattered staining (punctate staining being separated) • 2: Moderate staining (a part of punctuate staining being adjacent) • 3: Heavy staining (punctate staining being barely separated) (Results) By taking the mean value of the total scores for the control group (physiological saline or PBS) as a standard (improvement ratio: 0%), the calculation was carried out. Each of the improvement ratios for the Compound A administration group, the Compound B administration group and the Compound C administration group is shown in Table 1 and the improvement ratio for the Compound D administration group is shown in Table 2. The mean value of the scores is a mean of those of 8 cases, respectively. The improvement ratio was calculated according to the following equation. Improvement ratio (%)={(control)−(the present compound)}/damage degree×100 Damage degree={(control)−(normal eye)}

[1] = 0.006% in physiological saline instilled into both eyes 6 times a day for 7 days, vs physiological saline control (0%)
[2] = 0.006% in physiological saline instilled into both eyes 6 times a day for 7 days, normal eye 3.0, saline control 6.1

Row | SMILES | Improvement ratio (%) (0.002% in PBS instilled into both eyes 6 times a day for 7 days, vs PBS control (0%)) | Mean value of total scores (0.002% in PBS instilled into both eyes 6 times a day for 7 days, normal eye 3.1, PBS control 5.6) | Improvement ratio (%) [1] | Mean value of total scores [2]
1 | CO[C@@H](Cc1ccc(OCCCOc2ccc(Oc3ccccc3)cc2)cc1)C(=O)O [Compound D, 2(S)-methoxy-3-[4-[3-(4-phenoxyphenoxy)propoxy]phenyl] propionic acid] | 12.0% | 5.3 |  | 
2 | Cc1oc(-c2ccccc2)nc1COc1ccc(CO/N=C(\C(=O)O)c2ccc(Oc3ccccc3)cc2)cc1 [Compound B, Z-2-[4-(5-methyl-2-phenyl-4-oxazolylmethoxy)benzyloxyimino]-2-(4-phenoxyphenyl) acetic acid] |  |  | 32.3% | 5.1
3 | Cc1oc(-c2ccccc2)nc1COc1ccc(CO/N=C(\CCC(=O)O)c2ccccc2)cc1 [Compound A, E-4-[4-(5-methyl-2-phenyl-4-oxazolylmethoxy)benzyloxyimino]-4-phenylbutyric acid] |  |  | 32.3% | 5.1
4 | CCCc1c(OCCCOc2cc(O)c(-c3ccc(F)cc3)cc2CC)cccc1Oc1ccccc1C(=O)[O-].[Na+] [Compound C, 2-[2-propyl-3-[3-[2-ethyl-4-(4-fluorophenyl)-5-hydroxyphenoxy]propoxy]phenoxy]sodium benzoate] |  |  | 38.7% | 4.9
